# Assay results from patent publication US20260209249A1, “NOVEL TRICYCLIC COMPOUND AS KRAS G12D INHIBITOR, AND USE THEREOF” (SK Biopharmaceuticals Co., priority 2022, published 2026).
# How the values were obtained:
# [1] = target: T1, GDP-KRAS G12D mutant protein (Homo sapiens, UniProt P01116, G12D); assay: Differential scanning fluorimetry (DSF) binding affinity to GDP-KRAS G12D mutant protein; conditions: DSF thermal shift, 10 μM compound, 4 μg KRAS protein
# T1 construct: purchased Daegu Gyeongbuk Medical Innovation Foundation (DGMIF), made to order
# In short: (§1)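 Thermal shift ΔTm was measured at 10 μM compound over a 25–99 °C ramp (0.05 °C/s), read at 580 nm ex/623 nm em with SYPRO Orange (2×). The protein (4 μg) was preincubated with compound for 30 min at room temperature, in 50 mM HEPES pH 7.5 for GppNHp-KRAS G12D or in kit buffer for GDP-KRAS G12D.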
# [2] = target: T2, GppNHp-KRAS G12D mutant protein (Homo sapiens, UniProt P01116, G12D); assay: Differential scanning fluorimetry (DSF) binding affinity to GppNHp-KRAS G12D mutant protein; conditions: DSF thermal shift, 10 μM compound, 4 μg KRAS protein, 50 mM HEPES (pH 7.5)
# T2 construct: purchased Daegu Gyeongbuk Medical Innovation Foundation (DGMIF), made to order
# In short: as §1
Compound,"GDP-KRAS G12D (ΔTmD, ° C.) [1] [°C]","GppNHp-KRAS G12D (ΔTmD, ° C.) [2] [°C]"
"C#Cc1c(F)ccc2cc(O)cc(-c3c(F)c4nc(OC[C@@]56CCCN5CC(=C(F)F)C6)nc(N5CC6CCC(C5)N6)c4c4cn(C)nc34)c12 [Example 92, 4-(9-((1R,5S)-3,8-diazabicyclo[3.2.1]octan-3-yl)-7-(((S)-2-(difluoromethylene)tetrahydro-1H-pyrrolizin-7a(5H)-yl)methoxy)-5-fluoro-2-methyl-2H-pyrazolo[4,3-]quinazolin-4-yl)-5-ethynyl-6-fluoronaphthalen-2-ol]",17.61,13.02
"C#Cc1c(F)ccc2cc(O)cc(-c3c(F)c4nc(OC[C@@]56CCCN5CC(=C(F)F)C6)nc(N5CC6CCC(C5)N6)c4c4cn(C)nc34)c12 [Example 91, 4-(9-((1R,5S)-3,8-diazabicyclo[3.2.1]octan-3-yl)-7-(((S)-2-(difluoromethylene)tetrahydro-1H-pyrrolizin-7a(5H)-yl)methoxy)-5-fluoro-2-methyl-2H-pyrazolo[4,3-n]quinazolin-4-yl)-5-ethynyl-6-fluoronaphthalen-2-ol]",−0.16,−0.45
"C#Cc1c(F)ccc2cc(O)cc(-c3cc4nc(OCC5(CN6CCC[C@H](F)C6)CC5)nc(N5C[C@H]6CC[C@@H](C5)N6)c4n4ccnc34)c12 [Example 31, 4-(1-((1R,5S)-3,8-diazabicyclo[3.2.1]octan-3-yl)-3-((1-(((S)-3-fluoropiperidin-1-yl)methyl)cyclopropyl)methoxy)imidazo[1′,2′:1,6]pyrido[3,2-d]pyrimidin-6-yl)-5-ethynyl-6-fluoronaphthalen-2-ol]",7.82,2.22
"C#Cc1c(F)ccc2cc(O)cc(-c3c(F)c4nc(OC[C@@]56CCCN5CC(=C(F)F)C6)nc(N5CC6CCC(C5)N6)c4c4cc(C)oc34)c12 [Example 66, 4-(1-((1R,5S)-3,8-diazabicyclo[3.2.1]octan-3-yl)-3-(((S)-2-(difluoromethylene)tetrahydro-1H-pyrrolizin-7a(5H)-yl)methoxy)-5-fluoro-8-methylfuro[3,2-n]quinazolin-6-yl)-5-ethynyl-6-fluoronaphthalen-2-ol]",14.49,9.45
"C#Cc1c(F)ccc2cc(N)cc(-c3cc4nc(OCC5(CN6CCC7(CC6)CC7(F)F)CC5)nc(N5C[C@H]6CC[C@@H](C5)N6)c4c4cn(C)nc34)c12 [Example 76, 4-(9-((1 R,5S)-3,8-diazabicyclo[3.2.1]octan-3-yl)-7-((1-((1,1-difluoro-6-azaspiro[2.5]octan-6-yl)methyl)cyclopropyl)methoxy)-2-methyl-2H-pyrazolo[4,3-f]quinazolin-4-yl)-5-ethynyl-6-fluoronaphthalen-2-amine]",5.17,1.47
"C#Cc1c(F)ccc2cc(N)cc(-c3cc4nc(OC[C@@]56CCCN5C[C@H](F)C6)nc(N5C[C@H]6CC[C@@H](C5)N6)c4n4ccnc34)c12 [Example 24, 4-(1-((1R,5S)-3,8-diazabicyclo[3.2.1]octan-3-yl)-3-(((2R,7aS)-2-fluorotetrahydro-1H-pyrrolizin-7a(5H)-yl)methoxy)imidazo[1′,2′:1,6]pyrido[3,2-d]pyrimidin-6-yl)-5-ethynyl-6-fluoronaphthalen-2-amine]",5.48,2.07
"C#Cc1c(F)ccc2cccc(-c3cc4nc(OC[C@@]56CCCN5C/C(=C\F)C6)nc(N5[C@@H]6CC[C@H]5CNC6)c4n4ccnc34)c12 [Example 22, 1-((1R,5S)-3,8-diazabicyclo[3.2.1]octan-8-yl)-6-(8-ethynyl-7-fluoronaphthalen-1-yl)-3-(((S,Z)-2-(fluoromethylene)tetrahydro-1H-pyrrolizin-7a(5H)-yl)methoxy)imidazo[1′,2′:1,6]pyrido[3,2-d]pyrimidine]",4.28,1.02
"Nc1nc2c(-c3cc4nc(OC[C@@]56CCCN5C[C@H](F)C6)nc(N5[C@@H]6CC[C@H]5CNC6)c4n4ccnc34)ccc(F)c2s1 [Example 15, 4-(1-((1R,5S)-3,8-diazabicyclo[3.2.1]octan-8-yl)-3-(((2R,7aS)-2-fluorotetrahydro-1H-pyrrolizin-7a(5H)-yl)methoxy)imidazo[1′,2′:1,6]pyrido[3,2-d]pyrimidin-6-yl)-7-fluorobenzo[d]thiazol-2-amine]",−0.01,0.28
"Nc1nc2c(-c3cc4nc(OC[C@@]56CCCN5C[C@H](F)C6)nc(N5C[C@H]6CC[C@@H](C5)N6)c4n4ccnc34)ccc(F)c2s1 [Example 25, 4-(1-((1R,5S)-3,8-diazabicyclo[3.2.1]octan-3-yl)-3-(((2R,7aS)-2-fluorotetrahydro-1H-pyrrolizin-7a(5H)-yl)methoxy)imidazo[1′,2′:1,6]pyrido[3,2-d]pyrimidin-6-yl)-7-fluorobenzo[d]thiazol-2-amine]",0.27,−0.17
"C#Cc1c(F)ccc2cccc(-c3cc4nc(OC[C@@]56CCCN5C[C@H](F)C6)nc(N5C[C@H]6CC[C@@H](C5)N6)c4n4ccnc34)c12 [Example 28, 1-((1R,5S)-3,8-diazabicyclo[3.2.1]octan-3-yl)-6-(8-ethynyl-7-fluoronaphthalen-1-yl)-3-(((2R,7aS)-2-fluorotetrahydro-1H-pyrrolizin-7a(5H)-yl)methoxy)imidazo[1′,2′:1,6]pyrido[3,2-d]pyrimidine]",3.53,0.27
"C#Cc1c(F)ccc2cc(O)cc(-c3cc4nc(OCC5(CN6CCCC6)CC5)nc(N5C[C@H]6CC[C@@H](C5)N6)c4n4ccnc34)c12 [Example 35, 4-(1-((1R,5S)-3,8-diazabicyclo[3.2.1]octan-3-yl)-3-((1-(pyrrolidin-1-ylmethyl)cyclopropyl)methoxy)imidazo[1′,2′:1,6]pyrido[3,2-d]pyrimidin-6-yl)-5-ethynyl-6-fluoronaphthalen-2-ol]",8.91,2.68
"C#Cc1c(F)ccc2cc(N)cc(-c3c(F)c4nc(OCC5(CN6CCC7(CC6)CC7(F)F)CC5)nc(N5C[C@H]6CC[C@@H](C5)N6)c4c4cc(C)oc34)c12 [Example 58, 4-(1-((1R,5S)-3,8-diazabicyclo[3.2.1]octan-3-yl)-3-((1-((1,1-difluoro-6-azaspiro[2.5]octan-6-yl)methyl)cyclopropyl)methoxy)-5-fluoro-8-methylfuro[3,2-f]quinazolin-6-yl)-5-ethynyl-6-fluoronaphthalen-2-amine]",6.81,1.92
